Results taken from patent publication US20190008870A1, “COMPOSITIONS AND METHODS FOR LIPID METABOLISM DISORDER” (JANSFAT BIOTECHNOLOGY CO., LTD., priority 2016, published 2019).
Several values for one entry are separate records, joined by “and”; a condition that tells them apart may be missing. Equal entries are not always repeated.

Legend:
PPARγ = PPARγ expression in HepG2 cells; assay type: cell-based; conditions: HepG2 cells; for PPARγ: Control 100
Experimental: (§1) The HepG2 hepatoma cell line was purchased from the American Type Culture Collection (ATCC, Manassas, Va., U.S.A.). Cells were cultured in Dulbecco's Modified Eagle's Medium (DMEM). […] Then the targeted drugs solution was incubated with the cells for 24 hours, followed by protein extraction. […] HepG2 cells were treated with various concentrations of targeted drugs for 24 hours. Reactions were terminated by washing twice with cold PBS, and the cells were then harvested. Proteins in the whole-cell lysate were homogenized in an ice-cold lysis buffer and a protease inhibitor (Sigma-Aldrich, St. Louis, Mo., U.S.A.). The homogenate was centrifuged at 90,000×g for 15 minutes at 4° C., and supernatant was recovered as the total cellular protein. Cytosolic and membrane fractions of HepG2 cells were prepared using a CNM (Cytosol Nuclear Membrane) compartmental protein extraction kit (BioChain Institute Inc., Hayward, Calif., U.S.A.) according to the manufacturer's instructions. All of the fractionated protein solutions were stored at −80° C. until analysis. To measure the expression levels of proteins by drugs, the total cell protein was extracted after incubation with treatments for 24 hours and then Western blotting analysis was performed as described previously.

ROCK II [1] = assay: ROCK II expression in HepG2 cells; assay type: cell-based
Experimental: as §1, with “-80°” for “−80°”

HMG CoA reductase = HMG CoA reductase expression in HepG2 cells (Western blotting); assay type: cell-based; conditions: for HMGR (%): CTL 100
Experimental: The HepG2 hepatoma cell line was purchased from the American Type Culture Collection (ATCC, Manassas, Va., U.S.A.). Cells were cultured in Dulbecco's Modified Eagle's Medium (DMEM). The culture media was supplemented with 5% heat-inactivated FBS, penicillin (100 U/mL) and streptomycin (100 μg/mL). Cells were grown in a humidified atmosphere containing 5% CO2 at 37° C., in which the oxygen tension in the incubator was held at 140 mmHg (20% O2, v/v; normoxic conditions). […] Then the targeted drugs solution was incubated with the cells for 24 hours, followed by protein extraction. The targeted drugs were added to the […].
HepG2 cells were treated with various concentrations of targeted drugs for 24 hours. Reactions were terminated by washing twice with cold PBS, and the cells were then harvested. Proteins in the whole-cell lysate were homogenized in an ice-cold lysis buffer and a protease inhibitor (Sigma-Aldrich, St. Louis, Mo., U.S.A.). The homogenate was centrifuged at 90,000×g for 15 minutes at 4° C., and supernatant was recovered as the total cellular protein. Cytosolic and membrane fractions of HepG2 cells were prepared using a CNM (Cytosol Nuclear Membrane) compartmental protein extraction kit (BioChain Institute Inc., Hayward, Calif., U.S.A.) according to the manufacturer's instructions. All of the fractionated protein solutions were stored at −80° C. until analysis. To measure the expression levels of proteins by drugs, the total cell protein was extracted after incubation with treatments for 24 hours and then Western blotting analysis was performed as described previously.

mice fed with HFD = assay: Serum and liver lipid levels of mice fed with HFD; assay type: in vivo; conditions: for HDL chol. / LDL chol. / TG / Tot. chol.: Dose 2.5 mg/kg (Table 2)
Experimental: (§2) During the 2 month experiments, mice fasted for one night before the experiment was changed from a standard diet (STD) to an HFD and then the mice were randomly divided into 13 groups, including a protection group, 2 control and 10 treatment groups. Six mice were used in each group. […] Liver from the protection group supplemented with KMUP-1 HCl (1 mg/kg/day) were used to determine the HMG CoA reductase expression. Each group of mice had free access to drinking water from week 1 to week 14. Tap water was used to normalize mineral nutrition.
Within 2 months, the 3 day food intake average for each animal was measured. The weight gain and plasma lipid levels of each group were determined and compared to the non-treatment control group. […] Agents used in the assays were obtained from Merck & Co. (Kenilworth, N.J., U.S.A.). Triglyceride (TG), total cholesterol, HDL cholesterol and LDL cholesterol in mouse serum were measured by methods used in the clinic. To measure the hepatic Triglyceride, isolated liver were cut into small chips.

[2] = Body weight and food intake of mice fed with HFD; assay type: in vivo; conditions: HFD mice, 5 mg/kg p.o.
Experimental: as §2, with “In the experiment, C57BL/6J male mice (21-22 g), after fasting, were fed an HFD as a model of hyperlipidemia for 8 weeks. During” for “During”
Within 2 months, the 3 day food intake average for each animal was measured. The weight gain and plasma lipid levels of each group were determined and compared to the non-treatment control group. Mouse blood was collected during the daytime by cardiac puncture followed by centrifugation at 90×g (Benchtop Centrifuge, U.S.A.) to separate the serum, and frozen at −80° C., for biochemical analysis using a Hitachi Clinical Analyzer 7070 (Hitachi High-Technologies Co. Tokyo, Japan). Agents used in the assays were obtained from Merck & Co. (Kenilworth, N.J., U.S.A.). Triglyceride (TG), total cholesterol, HDL cholesterol and LDL cholesterol in mouse serum were measured by methods used in the clinic. To measure the hepatic Triglyceride, isolated liver were cut into small chips.

ABCA1 = ABCA1 expression in HepG2 cells; assay type: cell-based; conditions: HepG2 cells, 10^−5 M, 24 hours; Control 100, Vehicle 110
Experimental: as §1

PDE-5A = assay: Expression of PDE-5A (Table 12); conditions: Control group 100 (%)
ROCK II [3] = assay: Expression of ROCK II (Table 12); conditions: Control group 100 (%)
eNOS = assay: Expression of eNOS (Table 12); conditions: Control group 100 (%)

`CC(C)=CCC/C(C)=C/CC/C(C)=C/COP(=O)(O)OP(=O)(O)O` [FPP, Farnesyl pyrophosphate, reference compound] showed a PPARγ (PPARγ; FPP (10 μM) alone) of 64% and an ROCKII (ROCK II [1]; FPP (10 μM) alone, Control 100) of 118%.

In the case of `CC(C)=CCC/C(C)=C/CC/C(C)=C/CC/C(C)=C/COP(=O)(O)OP(=O)(O)O` [GGPP, Geranylgeranyl pyrophosphate, reference compound], the PPARγ (PPARγ; GGPP (10 μM) alone) is reported as 50% and the ROCKII (ROCK II [1]; GGPP (10 μM) alone, Control 100) is reported as 150% and 220%.

In the case of `CC(O)(CCO)CC(=O)O` (stereo not drawn) [Mevalonate], the “HMGR (%)” value (HMG CoA reductase; Mevalonate 20 (μm)) is reported as 110%, the “HMGR (%)” value (HMG CoA reductase; Mevalonate 40 (μm)) is reported as 95% and the “HMGR (%)” value (HMG CoA reductase; Mevalonate 60 (μm)) is reported as 55%. For the same compound, the “HMGR (%)” value (HMG CoA reductase; Mevalonate 80 (μm)) was 48%, the “HMGR (%)” value (HMG CoA reductase; Mevalonate 100 (μm)) was 13% and the “HMG CoA expression” value (HMG CoA reductase; Mevalonate (100 μM) alone, Control 100) was 20%.

For `Nc1nc2c(nc(Sc3ccc(Cl)cc3)n2[C@@H]2O[C@@H]3CO[P@@](=O)(S)O[C@H]3[C@H]2O)c(=O)[nH]1` [Rp-8-pCPT-cGMPS, 8-(p-chloro-phenylthio)guanosine-3,5-monophosphorothioate, reference compound], the “ROCK II expression” value (ROCK II [1]; Rp-8-pCPT-cGMPS 10 μM alone, Control 100) was 320.

With `CCCc1nn(C)c2c(=O)nc(-c3cc(S(=O)(=O)N4CCN(C)CC4)ccc3OCC)[nH]c12` [SIDAF, 5-[2-ethoxy-5-(4-methylpiperazin-1-yl)-sulphonylphenyl]-1-methyl-3-propyl-4H-pyrazolo[4,3-d]pyrimidin-7-one, reference compound] the HDL cholesterol (mice fed with HFD; 5 mg/kg p.o.) was 103.2 ± 2.5 mg/dL, the LDL cholesterol (mice fed with HFD; 5 mg/kg p.o.) was 15.3 ± 1.3 mg/dL and the “TG in serum (Triacylglycerol)” value (mice fed with HFD; 5 mg/kg p.o.) was 82.7 ± 6.3 mg/dL. The TG of liver (mice fed with HFD; 5 mg/kg p.o.) was 34.5 ± 2.** mg/dl, the “Tot. chol. (total cholesterol)” value (mice fed with HFD; 5 mg/kg p.o.) was 133.7 ± 4.3 mg/dL and the “final BW (Body weight)” value [2] was 23.9 ± 0.9 g.

For `C[C@@H](N)[C@H]1CC[C@H](C(=O)Nc2ccncc2)CC1` [Y27632, reference compound], the PPARγ expression (PPARγ; 10^−5 M, 24 hours, Control 100, Vehicle 260) was 550, the ABCA1 expression (ABCA1) was 225 and the “ROCK II expression” value (ROCK II [1]; 10^−5 M, 24 hours, Control 100, Vehicle 88) was 52.

In the case of KMUP-1-DL-ascorbic acid [KMUP-1-VC], the PDE-5A expression (PDE-5A) is reported as 68.8 ± 5.3%, the HDL chol. (mice fed with HFD) is reported as 97.3 ± 1.6 mg/dL and the LDL chol. (mice fed with HFD) is reported as 16.5 ± 0.9 mg/dL. The TG (mice fed with HFD) was 78.2 ± 3.6 mg/dL, the Tot. chol. (mice fed with HFD) was 129.4 ± 1.4 mg/dL and the “ROCK II expression” value (ROCK II [3]) was 40.8 ± 3.7%.

In the case of “KMUP-1-sodium carboxyl methylcellulose [KMUP-1-CMC]”, the eNOS expression (eNOS) is reported as 152.14 ± 6.3%, the PDE-5A expression (PDE-5A) is reported as 58.7 ± 3.5% and the HDL chol. (mice fed with HFD) is reported as 108.4 ± 1.3 mg/dL. It also gave an LDL chol. (mice fed with HFD) of 16.4 ± 1.7 mg/dL, a TG (mice fed with HFD) of 83.2 ± 5.3 mg/dL and a Tot. chol. (mice fed with HFD) of 129.7 ± 1.6 mg/dL. The “ROCK II expression” value (ROCK II [3]) was 38.6 ± 2.7%.
